Source: the supplement of paper PMC12137928
Where a name gives a salt, the structure may show the parent alone.

Test system: HCT116
Settings: 72 h
Method in brief: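 Luminescence was read with CellTiter-Glo in HCT116 cells seeded at 250 per well in 1536-well plates. Signals were scaled between vehicle at 0% and positive control at -100%, then pattern-corrected. IC50 and maximal efficacy were obtained by fitting a four-parameter Hill equation.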

Row | Structure (SMILES) | IC50 cell viability (ICRF193 0 nM) [µM] | IC50 cell viability (ICRF193 200 nM) [µM]
1 | COCC(=O)Nc1cc(Sc2ccccc2)ccc1N=C(NC(=O)OC)NC(=O)OC [Febantel] | > 45.8 | > 45.8
2 | CCOC(=O)[C@@H](N)CS [L-Cysteine ethyl ester hydrochloride] | > 45.8 | > 45.8
3 | OCc1ccccc1O [Salicyl alcohol] | > 45.8 | > 45.8
4 | CCCCC(=O)N(Cc1ccc(-c2ccccc2-c2nnn[nH]2)cc1)[C@H](C(=O)O)C(C)C [VALSARTAN] | > 45.8 | > 45.8
5 | O=C(Oc1ccccc1C(=O)O)c1ccccc1O [Salsalate] | > 45.8 | > 45.8
6 | CCN(CC)CCOCCOC(=O)C(CC)(CC)c1ccccc1 [Oxeladin Citrate] | > 45.8 | > 45.8
7 | N=C(N)NC(=O)c1nc(Cl)c(N)nc1N [Amiloride] | > 45.8 | > 45.8
8 | CC(C1=C(CCN(C)C)Cc2ccccc21)c1ccccn1 (stereo in doubt) [(S)-(+)-Dimethindene maleate] | > 45.8 | > 45.8
9 | C=CCN1CC[C@]23c4c5ccc(O)c4O[C@H]2[C@@H](OCCOCCOCCOCCOCCOCCOCCOC)CC[C@@]3(O)[C@H]1C5 [Naloxegol (oxalate)] | > 45.8 | > 45.8
10 | Oc1ccc(Cl)cc1Cc1ccccc1 [Clorophene] | > 45.8 | > 45.8
11 | CN[C@@H]1[C@H](O[C@H]2[C@H](O[C@H]3[C@H](O)[C@@H](O)[C@H](N=C(N)N)[C@@H](O)[C@@H]3N=C(N)N)O[C@@H](C)[C@]2(O)C=O)O[C@@H](CO)[C@H](O)[C@H]1O [Streptomycin sulfate] | > 45.8 | > 45.8
12 | N[C@@H](CC(=O)N1CCn2c(nnc2C(F)(F)F)C1)Cc1cc(F)c(F)cc1F [Sitagliptin] | > 45.8 | > 45.8
13 | NS(=O)(=O)c1cc(Cl)c(Cl)c(S(N)(=O)=O)c1 [Diclofenamide] | > 45.8 | > 45.8
14 | COc1ccc(C(CN(C)C)C2(O)CCCCC2)cc1 (stereo unspecified) [Venlafaxine] | > 45.8 | > 45.8
15 | OCc1ccc(Cl)cc1Cl [2,4-Dichlorobenzyl alcohol] | > 45.8 | > 45.8
16 | CCOc1nc2cccc(C(=O)O)c2n1Cc1ccc(-c2ccccc2-c2noc(=O)[nH]2)cc1 [Azilsartan (TAK-536)] | > 45.8 | > 45.8
17 | CC1=C2[C@H]3OC(=O)[C@@H](C)[C@@H]3CC[C@@]2(C)C=CC1=O [alpha-Santonin] | > 45.8 | > 45.8
18 | Cc1oc(=O)oc1COC(=O)N1CC[C@@H](N2CC/C(=C\C3=C(C(=O)O)N4C(=O)[C@@H](NC(=O)/C(=N/O)c5nsc(N)n5)[C@H]4SC3)C2=O)C1 [CEFTOBIPROLE MEDOCARIL SODIUM] | > 45.8 | > 45.8
19 | CN[C@@H]1[C@@H](O)[C@@H](O[C@@H]2[C@@H](O)[C@H](O[C@H]3O[C@H](CN)CC[C@H]3N)[C@@H](N)C[C@H]2N)OC[C@]1(C)O.CN[C@@H]1[C@@H](O)[C@@H](O[C@@H]2[C@@H](O)[C@H](O[C@H]3O[C@H]([C@@H](C)N)CC[C@H]3N)[C@@H](N)C[C@H]2N)OC[C@]1(C)O.CN[C@@H]1[C@@H](O)[C@@H](O[C@@H]2[C@@H](O)[C@H](O[C@H]3O[C@H]([C@@H](C)NC)CC[C@H]3N)[C@@H](N)C[C@H]2N)OC[C@]1(C)O [GENTAMICIN SULFATE] | > 45.8 | > 45.8
20 | C=CC[N@@+]12CC[C@@]34c5ccccc5N5/C=C6/[C@H]7C[C@H]8[C@@]9(CC[N@@+]8(CC=C)C/C7=C/CO)c7ccccc7N(/C=C(/[C@@H](C[C@@H]31)/C(=C\CO)C2)[C@H]54)[C@@H]69 [Alcuronium chloride] | > 45.8 | > 45.8
21 | CCCCCN(C)CCC(O)(P(=O)(O)O)P(=O)(O)O [Ibandronate sodium hydrate] | > 45.8 | > 45.8
22 | O=C(Cc1cccs1)N[C@@H]1C(=O)N2C(C(=O)[O-])=C(C[n+]3ccccc3)CS[C@H]12 [Cephaloridine] | > 45.8 | > 45.8
23 | N#Cc1c(N(CC(=O)O)CC(=O)O)sc(C(=O)O)c1CC(=O)O [Strontium Ranelate] | > 45.8 | > 45.8
24 | CCOC(=O)c1ccc(N)cc1 [Benzocaine] | > 45.8 | > 45.8
25 | Cc1cc(C(C)(C)C)cc(C)c1CC1=NCCN1 [Xylometazoline hydrochloride] | > 45.8 | > 45.8
26 | Nc1nc(NC2CC2)c2ncn([C@H]3C=C[C@@H](CO)C3)c2n1 [ABACAVIR SULFATE] | > 45.8 | > 45.8
27 | CCN1CCN(C(=O)N[C@@H](C(=O)N[C@@H]2C(=O)N3[C@@H]2SC(C)(C)[C@@H]3C(=O)O)c2ccccc2)C(=O)C1=O [Piperacillin sodium salt] | > 45.8 | > 45.8
28 | COc1cc(N)c(Cl)cc1C(=O)NC1CCN(CCCOc2ccc(F)cc2)CC1OC (stereo unspecified) [Cisapride] | > 45.8 | > 45.8
